Source: ChEMBL document CHEMBL5715260, “Selectivity Literature for EUbOPEN Chemogenomic Library” (2024)
One block for each compound: values may come before it.

Legend:
[1] = molecular target: T1, Hepatocyte nuclear factor 4-alpha (Homo sapiens) (UniProt P41235); experiment: Selectivity interaction (Reporter gene assay) EUB0000583a HNF4A; set-up: recommended concentration 1 uM
T1 sequence (whole entry): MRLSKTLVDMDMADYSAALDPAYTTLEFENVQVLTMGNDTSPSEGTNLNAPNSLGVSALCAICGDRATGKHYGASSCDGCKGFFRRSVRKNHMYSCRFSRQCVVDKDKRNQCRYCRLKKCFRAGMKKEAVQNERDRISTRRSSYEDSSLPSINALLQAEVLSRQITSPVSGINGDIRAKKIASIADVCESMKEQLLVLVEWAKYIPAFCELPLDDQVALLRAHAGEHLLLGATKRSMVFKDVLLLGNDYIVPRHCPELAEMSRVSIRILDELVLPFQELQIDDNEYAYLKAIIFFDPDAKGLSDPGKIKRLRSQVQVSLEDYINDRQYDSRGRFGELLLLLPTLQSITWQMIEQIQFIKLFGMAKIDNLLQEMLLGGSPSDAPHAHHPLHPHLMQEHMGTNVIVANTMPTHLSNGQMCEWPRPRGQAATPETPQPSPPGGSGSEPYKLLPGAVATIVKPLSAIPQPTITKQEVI

[2] = molecular target: T2, Nuclear receptor subfamily 2 group C member 1 (Homo sapiens) (UniProt P13056); experiment: Selectivity interaction (Reporter gene assay) EUB0000583a NR2C1; set-up: recommended concentration 1 uM
T2 sequence (whole entry): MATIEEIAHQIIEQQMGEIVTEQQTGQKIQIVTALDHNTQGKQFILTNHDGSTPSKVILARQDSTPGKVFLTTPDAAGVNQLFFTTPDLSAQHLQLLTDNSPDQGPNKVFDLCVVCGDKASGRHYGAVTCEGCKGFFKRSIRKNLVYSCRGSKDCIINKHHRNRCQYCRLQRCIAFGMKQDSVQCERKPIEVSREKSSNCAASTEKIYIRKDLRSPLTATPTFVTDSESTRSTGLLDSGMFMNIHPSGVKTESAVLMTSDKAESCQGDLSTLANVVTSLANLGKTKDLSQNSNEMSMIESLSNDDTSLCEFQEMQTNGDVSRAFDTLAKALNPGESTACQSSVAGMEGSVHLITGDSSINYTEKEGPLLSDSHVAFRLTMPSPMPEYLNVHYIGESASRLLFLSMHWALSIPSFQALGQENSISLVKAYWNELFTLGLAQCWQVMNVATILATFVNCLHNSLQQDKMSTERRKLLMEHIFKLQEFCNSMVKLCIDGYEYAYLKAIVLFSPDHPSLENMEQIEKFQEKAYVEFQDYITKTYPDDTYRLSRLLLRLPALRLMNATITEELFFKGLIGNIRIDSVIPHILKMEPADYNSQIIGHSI

[3] = molecular target: Nuclear receptor subfamily 2 group E member 1 (Homo sapiens) (UniProt Q9Y466); experiment: Selectivity interaction (Reporter gene assay) EUB0000583a NR2E1; set-up: recommended concentration 1 uM
[4] = molecular target: Nuclear receptor subfamily 4immunitygroup A member 1 (Homo sapiens) (UniProt P22736); experiment: Selectivity interaction (Reporter gene assay) EUB0000583a NR4A1; set-up: recommended concentration 1 uM
[5] = molecular target: Steroidogenic factor 1 (Homo sapiens) (UniProt Q13285); experiment: Selectivity interaction (Reporter gene assay) EUB0000583a NR5A1; set-up: recommended concentration 1 uM
[6] = molecular target: T3, Alpha trans-inducing protein (Human alphaherpesvirus 1) (UniProt A0A5J6DW59); experiment: Selectivity interaction (Reporter gene assay) EUB0000583a UL48; set-up: recommended concentration 1 uM
[7] = molecular target: T4, Retinoic acid receptor RXR-alpha (Homo sapiens) (UniProt P19793); experiment: Selectivity interaction (Reporter gene assay) EUB0000583a RXRA; set-up: recommended concentration 1 uM; conditions: reference bexarotene 1 uM, Selectivity number of off-targets 0.0, Selectivity number of targets 1.0, Source Knowledge inhouse
T4 sequence (whole entry): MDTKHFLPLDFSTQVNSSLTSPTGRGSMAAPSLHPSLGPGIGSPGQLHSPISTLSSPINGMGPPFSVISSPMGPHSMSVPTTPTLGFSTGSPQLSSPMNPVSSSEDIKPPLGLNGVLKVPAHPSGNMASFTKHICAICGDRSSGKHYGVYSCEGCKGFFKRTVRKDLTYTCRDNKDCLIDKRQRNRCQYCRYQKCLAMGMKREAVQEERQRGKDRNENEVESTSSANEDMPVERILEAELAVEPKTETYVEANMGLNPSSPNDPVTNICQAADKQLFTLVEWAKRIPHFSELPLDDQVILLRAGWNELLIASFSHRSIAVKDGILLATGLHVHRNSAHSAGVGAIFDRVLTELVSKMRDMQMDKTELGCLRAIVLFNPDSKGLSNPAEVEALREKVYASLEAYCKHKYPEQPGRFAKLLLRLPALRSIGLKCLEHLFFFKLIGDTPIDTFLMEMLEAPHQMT

[8] = molecular target: T1, Hepatocyte nuclear factor 4-alpha (Homo sapiens); experiment: Selectivity interaction (Reporter gene assay) EUB0000582a HNF4A; set-up: recommended concentration 1 uM
[9] = molecular target: T2, Nuclear receptor subfamily 2 group C member 1 (Homo sapiens); experiment: Selectivity interaction (Reporter gene assay) EUB0000582a NR2C1; set-up: recommended concentration 1 uM
[10] = molecular target: Nuclear receptor subfamily 2 group E member 1 (Homo sapiens) (UniProt Q9Y466); experiment: Selectivity interaction (Reporter gene assay) EUB0000582a NR2E1; set-up: recommended concentration 1 uM
[11] = molecular target: Nuclear receptor subfamily 4immunitygroup A member 1 (Homo sapiens) (UniProt P22736); experiment: Selectivity interaction (Reporter gene assay) EUB0000582a NR4A1; set-up: recommended concentration 1 uM
[12] = molecular target: Steroidogenic factor 1 (Homo sapiens) (UniProt Q13285); experiment: Selectivity interaction (Reporter gene assay) EUB0000582a NR5A1; set-up: recommended concentration 1 uM
[13] = molecular target: T3, Alpha trans-inducing protein (Human alphaherpesvirus 1); experiment: Selectivity interaction (Reporter gene assay) EUB0000582a UL48; set-up: recommended concentration 1 uM
[14] = molecular target: T4, Retinoic acid receptor RXR-alpha (Homo sapiens); experiment: Selectivity interaction (Reporter gene assay) EUB0000582a RXRA; set-up: recommended concentration 1 uM; conditions: reference bexarotene 1 uM, Selectivity number of off-targets 0.0, Selectivity number of targets 1.0, Source Knowledge inhouse
[15] = molecular target: T1, Hepatocyte nuclear factor 4-alpha (Homo sapiens); experiment: Selectivity interaction (Reporter gene assay) EUB0000573a HNF4A; set-up: recommended concentration 1 uM
[16] = molecular target: T2, Nuclear receptor subfamily 2 group C member 1 (Homo sapiens); experiment: Selectivity interaction (Reporter gene assay) EUB0000573a NR2C1; set-up: recommended concentration 1 uM
[17] = molecular target: Nuclear receptor subfamily 2 group E member 1 (Homo sapiens) (UniProt Q9Y466); experiment: Selectivity interaction (Reporter gene assay) EUB0000573a NR2E1; set-up: recommended concentration 1 uM
[18] = molecular target: Nuclear receptor subfamily 4immunitygroup A member 1 (Homo sapiens) (UniProt P22736); experiment: Selectivity interaction (Reporter gene assay) EUB0000573a NR4A1; set-up: recommended concentration 1 uM
[19] = molecular target: Steroidogenic factor 1 (Homo sapiens) (UniProt Q13285); experiment: Selectivity interaction (Reporter gene assay) EUB0000573a NR5A1; set-up: recommended concentration 1 uM
[20] = molecular target: T3, Alpha trans-inducing protein (Human alphaherpesvirus 1); experiment: Selectivity interaction (Reporter gene assay) EUB0000573a UL48; set-up: recommended concentration 1 uM
[21] = molecular target: T4, Retinoic acid receptor RXR-alpha (Homo sapiens); experiment: Selectivity interaction (Reporter gene assay) EUB0000573a RXRA; set-up: recommended concentration 1 uM; conditions: reference bexarotene 1 uM, Selectivity number of off-targets 0.0, Selectivity number of targets 1.0, Source Knowledge inhouse
[22] = molecular target: T1, Hepatocyte nuclear factor 4-alpha (Homo sapiens); experiment: Selectivity interaction (Reporter gene assay) EUB0000574a HNF4A; set-up: recommended concentration 10 uM
[23] = molecular target: T2, Nuclear receptor subfamily 2 group C member 1 (Homo sapiens); experiment: Selectivity interaction (Reporter gene assay) EUB0000574a NR2C1; set-up: recommended concentration 10 uM
[24] = molecular target: Nuclear receptor subfamily 2 group E member 1 (Homo sapiens) (UniProt Q9Y466); experiment: Selectivity interaction (Reporter gene assay) EUB0000574a NR2E1; set-up: recommended concentration 10 uM
[25] = molecular target: Nuclear receptor subfamily 4immunitygroup A member 1 (Homo sapiens) (UniProt P22736); experiment: Selectivity interaction (Reporter gene assay) EUB0000574a NR4A1; set-up: recommended concentration 10 uM
[26] = molecular target: Steroidogenic factor 1 (Homo sapiens) (UniProt Q13285); experiment: Selectivity interaction (Reporter gene assay) EUB0000574a NR5A1; set-up: recommended concentration 10 uM
[27] = molecular target: T3, Alpha trans-inducing protein (Human alphaherpesvirus 1); experiment: Selectivity interaction (Reporter gene assay) EUB0000574a UL48; set-up: recommended concentration 10 uM
[28] = molecular target: T4, Retinoic acid receptor RXR-alpha (Homo sapiens); experiment: Selectivity interaction (Reporter gene assay) EUB0000574a RXRA; set-up: recommended concentration 10 uM; conditions: reference bexarotene 1 uM, Selectivity number of off-targets 0.0, Selectivity number of targets 1.0, Source Knowledge inhouse
[29] = molecular target: T1, Hepatocyte nuclear factor 4-alpha (Homo sapiens); experiment: Selectivity interaction (Reporter gene assay) EUB0000571a HNF4A; set-up: recommended concentration 1 uM
[30] = molecular target: T2, Nuclear receptor subfamily 2 group C member 1 (Homo sapiens); experiment: Selectivity interaction (Reporter gene assay) EUB0000571a NR2C1; set-up: recommended concentration 1 uM
[31] = molecular target: Nuclear receptor subfamily 2 group E member 1 (Homo sapiens) (UniProt Q9Y466); experiment: Selectivity interaction (Reporter gene assay) EUB0000571a NR2E1; set-up: recommended concentration 1 uM
[32] = molecular target: Nuclear receptor subfamily 4immunitygroup A member 1 (Homo sapiens) (UniProt P22736); experiment: Selectivity interaction (Reporter gene assay) EUB0000571a NR4A1; set-up: recommended concentration 1 uM
[33] = molecular target: Steroidogenic factor 1 (Homo sapiens) (UniProt Q13285); experiment: Selectivity interaction (Reporter gene assay) EUB0000571a NR5A1; set-up: recommended concentration 1 uM
[34] = molecular target: T3, Alpha trans-inducing protein (Human alphaherpesvirus 1); experiment: Selectivity interaction (Reporter gene assay) EUB0000571a UL48; set-up: recommended concentration 1 uM
[35] = molecular target: T4, Retinoic acid receptor RXR-alpha (Homo sapiens); experiment: Selectivity interaction (Reporter gene assay) EUB0000571a RXRA; set-up: recommended concentration 1 uM; conditions: reference bexarotene 1 uM, Selectivity number of off-targets 0.0, Selectivity number of targets 1.0, Source Knowledge inhouse

Sequence of Nuclear receptor subfamily 2 group E member 1 (Homo sapiens) (Q9Y466 whole entry): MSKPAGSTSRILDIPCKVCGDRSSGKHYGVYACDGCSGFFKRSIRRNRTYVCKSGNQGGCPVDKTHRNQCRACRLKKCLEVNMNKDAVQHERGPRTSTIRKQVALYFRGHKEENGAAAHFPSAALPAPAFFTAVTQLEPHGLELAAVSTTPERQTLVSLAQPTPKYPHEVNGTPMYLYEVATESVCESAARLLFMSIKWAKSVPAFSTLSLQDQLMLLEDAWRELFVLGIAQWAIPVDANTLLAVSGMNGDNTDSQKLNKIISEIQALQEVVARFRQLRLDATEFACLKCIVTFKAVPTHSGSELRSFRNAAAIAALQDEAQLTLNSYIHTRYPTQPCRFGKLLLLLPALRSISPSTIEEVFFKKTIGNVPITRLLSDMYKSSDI
Sequence of Steroidogenic factor 1 (Homo sapiens) (Q13285 whole entry): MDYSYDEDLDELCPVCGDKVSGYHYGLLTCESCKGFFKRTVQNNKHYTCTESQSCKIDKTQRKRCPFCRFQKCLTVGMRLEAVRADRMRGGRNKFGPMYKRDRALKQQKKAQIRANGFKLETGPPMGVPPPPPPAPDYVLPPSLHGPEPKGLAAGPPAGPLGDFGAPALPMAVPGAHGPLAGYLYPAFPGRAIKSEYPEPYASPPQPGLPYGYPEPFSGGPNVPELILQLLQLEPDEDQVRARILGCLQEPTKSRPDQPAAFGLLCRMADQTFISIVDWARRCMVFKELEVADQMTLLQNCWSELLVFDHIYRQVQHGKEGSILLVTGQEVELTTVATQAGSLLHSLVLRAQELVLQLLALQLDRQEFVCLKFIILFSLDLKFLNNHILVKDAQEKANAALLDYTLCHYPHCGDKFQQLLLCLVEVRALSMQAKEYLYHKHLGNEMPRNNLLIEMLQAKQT
T3 sequence (A0A5J6DW59 as listed by the source): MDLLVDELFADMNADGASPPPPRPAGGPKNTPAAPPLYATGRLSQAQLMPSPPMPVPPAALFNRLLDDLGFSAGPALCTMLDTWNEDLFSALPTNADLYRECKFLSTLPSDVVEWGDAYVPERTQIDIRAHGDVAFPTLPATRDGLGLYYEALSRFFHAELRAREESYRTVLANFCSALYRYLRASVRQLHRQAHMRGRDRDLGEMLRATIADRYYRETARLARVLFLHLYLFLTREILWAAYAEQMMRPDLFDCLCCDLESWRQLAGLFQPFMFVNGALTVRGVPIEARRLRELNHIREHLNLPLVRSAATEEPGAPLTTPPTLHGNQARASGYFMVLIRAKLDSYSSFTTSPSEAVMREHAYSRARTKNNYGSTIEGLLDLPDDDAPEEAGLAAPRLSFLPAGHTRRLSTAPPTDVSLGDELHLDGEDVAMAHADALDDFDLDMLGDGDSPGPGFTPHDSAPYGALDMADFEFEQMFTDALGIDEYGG
Sequence of Nuclear receptor subfamily 4immunitygroup A member 1 (Homo sapiens) (P22736 whole entry): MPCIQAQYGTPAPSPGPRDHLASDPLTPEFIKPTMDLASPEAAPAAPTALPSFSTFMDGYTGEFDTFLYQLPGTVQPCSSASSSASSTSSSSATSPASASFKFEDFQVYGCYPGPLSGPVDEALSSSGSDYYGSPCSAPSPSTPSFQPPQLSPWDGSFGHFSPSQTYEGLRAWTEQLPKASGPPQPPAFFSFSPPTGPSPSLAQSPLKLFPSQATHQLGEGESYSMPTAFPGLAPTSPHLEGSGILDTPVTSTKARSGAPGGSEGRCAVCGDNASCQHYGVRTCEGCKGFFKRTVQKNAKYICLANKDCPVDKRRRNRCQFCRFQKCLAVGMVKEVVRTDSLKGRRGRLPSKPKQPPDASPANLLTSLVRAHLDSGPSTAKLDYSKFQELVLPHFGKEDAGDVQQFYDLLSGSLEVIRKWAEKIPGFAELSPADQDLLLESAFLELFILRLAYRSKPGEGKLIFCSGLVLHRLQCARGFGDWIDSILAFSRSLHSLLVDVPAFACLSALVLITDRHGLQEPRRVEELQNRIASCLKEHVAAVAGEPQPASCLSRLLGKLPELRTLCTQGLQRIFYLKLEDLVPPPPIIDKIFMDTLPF

Remaining activity [1]: 0.993
Fold activation [2]: 1.19
Remaining activity [3]: 0.883
Remaining activity [4]: 0.837
Fold activation [5]: 1.08
P-value [6]: 0.000557
Relative activation [7]: 0.635%
SMILES: C=C1/C(=C\C=C2/CCC[C@]3(C)[C@@H]([C@H](C)/C=C/[C@H](C)C(C)C)CC[C@@H]23)C[C@@H](O)C[C@@H]1O

Fold activation [8]: 1.08
Fold activation [9]: 1.62
Fold activation [10]: 0.996
Fold activation [11]: 1.19
Fold activation [12]: 1.27
P-value [13]: 0.000219
Relative activation [14]: 0.643%
SMILES: C=C1/C(=C\C=C2/CCC[C@]3(C)[C@@H]([C@H](C)/C=C/C=C/C(O)(CC)CC)CC[C@@H]23)C[C@@H](O)C[C@@H]1O

Fold activation [15]: 1.02
Fold activation [16]: 1.3
Fold activation [17]: 1.46
Fold activation [18]: 1.03
Fold activation [19]: 1.12
P-value [20]: 1.36e-05
Relative activation [21]: 0.671%
SMILES: CC(C)OC(=O)C1=CN(C(=O)c2ccc(F)c(F)c2)CC(C)(C)c2c1[nH]c1ccccc21

Fold activation [22]: 1.04
Fold activation [23]: 1.14
Fold activation [24]: 1.33
Fold activation [25]: 1.04
Remaining activity [26]: 0.952
P-value [27]: 0.000527
Relative activation [28]: 0.683%
SMILES: CO[C@H]1/C=C/O[C@@]2(C)Oc3c(C)c(O)c4c(O)c(c(/C=N/N5CCN(C)CC5)c(O)c4c3C2=O)NC(=O)/C(C)=C\C=C\[C@H](C)[C@H](O)[C@@H](C)[C@@H](O)[C@@H](C)[C@H](OC(C)=O)[C@@H]1C

Fold activation [29]: 1.06
Fold activation [30]: 1.38
Remaining activity [31]: 0.849
Remaining activity [32]: 0.966
Fold activation [33]: 1.22
P-value [34]: 0.0005
Relative activation [35]: 0.67%
SMILES: COC(=O)C(Cc1ccc(OCCn2c(=O)sc3cc(C(=O)c4ccccc4)ccc32)cc1)C(=O)OC
